From ChEMBL document CHEMBL1201862, “PubChem BioAssay data set” (2004)
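Briefly, cells in 96-well plates were exposed to five compound concentrations for 48 h, and endpoints were estimated by linear interpolation. Here, GI50 denotes the concentration required for 50% inhibition of growth.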 Activity calls are given as the source filed them. No stated cut-off is given here; in the data, active = GI50 up to about 1.1 µM and inactive = higher.

Key:
Assay in all cases: NCI-60 cell line screen, 48 h
SW-620 = tested on: SW-620
SNB-75 = tested on: SNB-75
SK-MEL-28 = tested on: SK-MEL-28
OVCAR-8 = tested on: OVCAR-8
LXFL 529 = tested on: LXFL 529
A549 = tested on: A549
SN12C = tested on: SN12C
NCI-H522 = tested on: NCI-H522
DLD-1 = tested on: DLD-1
M19-MEL = tested on: M19-MEL
786-0 = tested on: 786-0
NCI-H23 = tested on: NCI-H23
RXF 393 = tested on: RXF 393
CCRF-CEM = tested on: CCRF-CEM
U-251 = tested on: U-251
SK-MEL-2 = tested on: SK-MEL-2
NCI-H460 = tested on: NCI-H460
SF-295 = tested on: SF-295
DMS-273 = tested on: DMS-273
EKVX = tested on: EKVX
IGROV-1 = tested on: IGROV-1
OVCAR-3 = tested on: OVCAR-3
TK-10 = tested on: TK-10
KM-20L2 = tested on: KM-20L2
UACC-257 = tested on: UACC-257
CAKI-1 = tested on: CAKI-1
LOX IMVI = tested on: LOX IMVI
K562 = tested on: K562
UO-31 = tested on: UO-31
HCT-116 = tested on: HCT-116
SNB-78 = tested on: SNB-78
NCI-H226 = tested on: NCI-H226
COLO 205 = tested on: COLO 205
SF-539 = tested on: SF-539
Malme-3M = tested on: Malme-3M
OVCAR-5 = tested on: OVCAR-5
MOLT-4 = tested on: MOLT-4
DMS-114 = tested on: DMS-114
A498 = tested on: A498
HCC 2998 = tested on: HCC 2998
UACC-62 = tested on: UACC-62
RPMI-8226 = tested on: RPMI-8226
HOP-62 = tested on: HOP-62
SNB-19 = tested on: SNB-19
ACHN = tested on: ACHN
HT-29 = tested on: HT-29
HCT-15 = tested on: HCT-15
HL-60 = tested on: HL-60
SK-MEL-5 = tested on: SK-MEL-5
M14 = tested on: M14
SF-268 = tested on: SF-268
KM12 = tested on: KM12
SK-OV-3 = tested on: SK-OV-3
SR = tested on: SR
HOP-92 = tested on: HOP-92

COC(=O)c1cc(C)n(NC(=O)OC(C)(C)C)c1C
GI50 (SW-620): > 100 µM (inactive)
GI50 (SNB-75): > 100 µM (inactive)
GI50 (SK-MEL-28): > 100 µM (inactive)
GI50 (OVCAR-8): > 100 µM (inactive)
GI50 (LXFL 529): > 100 µM (inactive)
GI50 (A549): > 100 µM (inactive)
GI50 (SN12C): > 100 µM (inactive)
GI50 (NCI-H522): > 100 µM (inactive)
GI50 (DLD-1): > 100 µM (inactive)
GI50 (M19-MEL): > 100 µM (inactive)
GI50 (786-0): > 100 µM (inactive)
GI50 (NCI-H23): > 100 µM (inactive)
GI50 (RXF 393): > 100 µM (inactive)
GI50 (CCRF-CEM): > 100 µM (inactive)
GI50 (U-251): > 100 µM (inactive)
GI50 (SK-MEL-2): > 100 µM (inactive)
GI50 (NCI-H460): > 100 µM (inactive)
GI50 (SF-295): > 100 µM (inactive)
GI50 (DMS-273): > 100 µM (inactive)
GI50 (EKVX): > 100 µM (inactive)
GI50 (IGROV-1): > 100 µM (inactive)
GI50 (OVCAR-3): > 100 µM (inactive)
GI50 (TK-10): > 100 µM (inactive)
GI50 (KM-20L2): > 100 µM (inactive)
GI50 (UACC-257): > 100 µM (inactive)
GI50 (CAKI-1): > 100 µM (inactive)
GI50 (LOX IMVI): > 100 µM (inactive)
GI50 (K562): > 100 µM (inactive)
GI50 (UO-31): > 100 µM (inactive)
GI50 (HCT-116): > 100 µM (inactive)
GI50 (SNB-78): 95.1 µM (inactive)
GI50 (NCI-H226): > 100 µM (inactive)
GI50 (COLO 205): > 100 µM (inactive)
GI50 (SF-539): > 100 µM (inactive)
GI50 (Malme-3M): > 100 µM (inactive)
GI50 (OVCAR-5): > 100 µM (inactive)
GI50 (MOLT-4): > 100 µM (inactive)
GI50 (DMS-114): > 100 µM (inactive)
GI50 (A498): > 100 µM (inactive)
GI50 (HCC 2998): > 100 µM (inactive)
GI50 (UACC-62): > 100 µM (inactive)
GI50 (RPMI-8226): > 100 µM (inactive)
GI50 (HOP-62): > 100 µM (inactive)
GI50 (SNB-19): > 100 µM (inactive)
GI50 (ACHN): > 100 µM (inactive)
GI50 (HT-29): > 100 µM (inactive)
GI50 (HCT-15): > 100 µM
GI50 (HL-60): > 100 µM (inactive)
GI50 (SK-MEL-5): > 100 µM (inactive)
GI50 (M14): > 100 µM (inactive)
GI50 (SF-268): > 100 µM (inactive)
GI50 (KM12): > 100 µM (inactive)
GI50 (SK-OV-3): > 100 µM (inactive)

O=C(N/N=C/C=C/c1ccccc1)[C@H](O)[C@@H](O)C(=O)N/N=C/C=C/c1ccccc1
GI50 (SW-620): > 100 µM (inactive)
GI50 (SK-MEL-28): > 100 µM (inactive)
GI50 (OVCAR-8): > 100 µM (inactive)
GI50 (LXFL 529): > 100 µM (inactive)
GI50 (A549): > 100 µM (inactive)
GI50 (SN12C): > 100 µM (inactive)
GI50 (NCI-H522): > 100 µM (inactive)
GI50 (DLD-1): > 100 µM (inactive)
GI50 (M19-MEL): > 100 µM (inactive)
GI50 (NCI-H23): > 100 µM (inactive)
GI50 (RXF 393): > 100 µM (inactive)
GI50 (CCRF-CEM): > 100 µM (inactive)
GI50 (U-251): > 100 µM (inactive)
GI50 (SK-MEL-2): > 100 µM (inactive)
GI50 (NCI-H460): > 100 µM (inactive)
GI50 (SF-295): > 100 µM (inactive)
GI50 (DMS-273): > 100 µM (inactive)
GI50 (EKVX): > 100 µM (inactive)
GI50 (IGROV-1): > 100 µM (inactive)
GI50 (TK-10): > 100 µM (inactive)
GI50 (KM-20L2): > 100 µM (inactive)
GI50 (UACC-257): > 100 µM (inactive)
GI50 (LOX IMVI): > 100 µM (inactive)
GI50 (K562): > 100 µM (inactive)
GI50 (UO-31): > 100 µM (inactive)
GI50 (HCT-116): > 100 µM (inactive)
GI50 (SNB-78): > 100 µM (inactive)
GI50 (SR): > 100 µM (inactive)
GI50 (COLO 205): > 100 µM (inactive)
GI50 (SF-539): > 100 µM (inactive)
GI50 (Malme-3M): > 100 µM (inactive)
GI50 (OVCAR-5): > 100 µM (inactive)
GI50 (MOLT-4): > 100 µM (inactive)
GI50 (DMS-114): > 100 µM (inactive)
GI50 (A498): > 100 µM (inactive)
GI50 (HCC 2998): > 100 µM (inactive)
GI50 (UACC-62): > 100 µM (inactive)
GI50 (RPMI-8226): > 100 µM (inactive)
GI50 (SNB-19): > 100 µM (inactive)
GI50 (ACHN): > 100 µM (inactive)
GI50 (HCT-15): > 100 µM
GI50 (HL-60): > 100 µM (inactive)
GI50 (SK-MEL-5): > 100 µM (inactive)
GI50 (SF-268): > 100 µM (inactive)
GI50 (KM12): > 100 µM (inactive)
GI50 (SK-OV-3): > 10 µM (inactive)

C/C(CC(=O)Nc1cccc([N+](=O)[O-])c1)=N/NC(N)=S
GI50 (SW-620): > 100 µM (inactive)
GI50 (SNB-75): > 100 µM (inactive)
GI50 (SK-MEL-28): > 100 µM (inactive)
GI50 (OVCAR-8): > 100 µM (inactive)
GI50 (LXFL 529): > 100 µM (inactive)
GI50 (A549): > 100 µM (inactive)
GI50 (NCI-H522): > 100 µM (inactive)
GI50 (DLD-1): > 100 µM (inactive)
GI50 (M19-MEL): > 100 µM (inactive)
GI50 (786-0): > 100 µM (inactive)
GI50 (NCI-H23): > 100 µM (inactive)
GI50 (RXF 393): > 100 µM (inactive)
GI50 (CCRF-CEM): > 100 µM (inactive)
GI50 (U-251): > 100 µM (inactive)
GI50 (HOP-92): > 100 µM (inactive)
GI50 (SK-MEL-2): > 100 µM (inactive)
GI50 (NCI-H460): > 100 µM (inactive)
GI50 (SF-295): > 100 µM (inactive)
GI50 (EKVX): > 100 µM (inactive)
GI50 (IGROV-1): > 100 µM (inactive)
GI50 (OVCAR-3): > 100 µM (inactive)
GI50 (TK-10): > 100 µM (inactive)
GI50 (KM-20L2): > 100 µM (inactive)
GI50 (UACC-257): > 100 µM (inactive)
GI50 (LOX IMVI): > 100 µM (inactive)
GI50 (K562): > 100 µM (inactive)
GI50 (UO-31): > 100 µM (inactive)
GI50 (HCT-116): > 100 µM (inactive)
GI50 (NCI-H226): > 100 µM (inactive)
GI50 (COLO 205): > 100 µM (inactive)
GI50 (SF-539): > 100 µM (inactive)
GI50 (Malme-3M): > 100 µM (inactive)
GI50 (OVCAR-5): > 100 µM (inactive)
GI50 (MOLT-4): > 100 µM (inactive)
GI50 (DMS-114): > 100 µM (inactive)
GI50 (HCC 2998): > 100 µM (inactive)
GI50 (UACC-62): > 100 µM (inactive)
GI50 (RPMI-8226): > 100 µM (inactive)
GI50 (HOP-62): > 100 µM (inactive)
GI50 (ACHN): > 100 µM (inactive)
GI50 (HT-29): > 100 µM (inactive)
GI50 (HL-60): > 100 µM (inactive)
GI50 (SK-MEL-5): > 100 µM (inactive)
GI50 (M14): > 100 µM (inactive)
GI50 (SF-268): > 100 µM (inactive)
GI50 (KM12): > 100 µM (inactive)
GI50 (SK-OV-3): > 100 µM (inactive)
